From PubChem BioAssay (NCI)
Where “and” joins values, the source holds several entries; their conditions need not be identical. Identical values can stand only once.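 Following 48 hours of exposure in 96-well plates, responses at five concentrations were used to interpolate endpoints linearly. Abbreviation: GI50, concentration required for 50% inhibition of growth. The concentration for full growth arrest is given as TGI.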

How the values were obtained:
Assay in all cases: growth of human tumour cells (NCI), 48 h
OVCAR-8 ovarian = tested on: OVCAR-8 ovarian
A549 NSCLC = tested on: A549 NSCLC
MOLT-4 leukemia = tested on: MOLT-4 leukemia
SF-539 CNS = tested on: SF-539 CNS
HCT-116 colon = tested on: HCT-116 colon
T-47D breast = tested on: T-47D breast
HL-60(TB) leukemia = tested on: HL-60(TB) leukemia
MDA-MB-231 breast = tested on: MDA-MB-231 breast
M14 melanoma = tested on: M14 melanoma
HT29 colon = tested on: HT29 colon
DU-145 prostate = tested on: DU-145 prostate
OVCAR-3 ovarian = tested on: OVCAR-3 ovarian
SK-MEL-5 melanoma = tested on: SK-MEL-5 melanoma
HCT-15 colon = tested on: HCT-15 colon
SNB-19 CNS = tested on: SNB-19 CNS
RXF 393 renal = tested on: RXF 393 renal

Structure (SMILES)	TGI (OVCAR-8 ovarian)	TGI (A549 NSCLC)	TGI (MOLT-4 leukemia)	TGI (SF-539 CNS)	TGI (HCT-116 colon)	TGI (T-47D breast)	TGI (HL-60(TB) leukemia)	TGI (MDA-MB-231 breast)	TGI (M14 melanoma)	TGI (HT29 colon)	TGI (DU-145 prostate)	TGI (OVCAR-3 ovarian)	TGI (SK-MEL-5 melanoma)	TGI (HCT-15 colon)	TGI (SNB-19 CNS)	TGI (RXF 393 renal)	GI50 (MOLT-4 leukemia)	GI50 (HL-60(TB) leukemia)	GI50 (HT29 colon)	GI50 (SK-MEL-5 melanoma)
COc1cc2c(cc1OC)C1C=NC(C2)c2cc(OC)c(OC)cc21 (stereo not given)	> 100 µM	> 100 µM	> 100 µM	> 100 µM	> 100 µM	> 100 µM	> 100 µM	> 100 µM	> 100 µM	> 100 µM	> 100 µM	> 100 µM	> 100 µM	> 100 µM	> 100 µM	–	–	–	–	–
C=CC[C@@H](N)C(=O)N(C)[C@@H](C)[C@@H](O)c1ccccc1	> 100 µM	> 100 µM	> 100 µM	> 100 µM	> 100 µM	> 100 µM	> 100 µM	> 100 µM	> 100 µM	–	> 100 µM	> 100 µM	> 100 µM	> 100 µM	> 100 µM	–	–	–	–	–
CS(=O)(=O)OCC1CN(S(C)(=O)=O)c2cc(O)ccc21 (stereo not given)	11.5 µM	21.1 µM	6.93 µM	7 µM	12.8 µM	1.96 µM	6.59 µM	6.8 µM	–	11.1 µM	10 µM	8.27 µM	3.52 µM	12.2 µM	–	3.47 µM	–	–	–	–
COc1cc(/C=C/c2nc(NC(=S)Nc3ccccc3)nnc2C)cc(OC)c1OC	> 100 µM	> 100 µM	> 100 µM	–	86 µM	90.1 µM	34.1 µM	> 100 µM	> 100 µM	48.8 µM	> 100 µM	–	29.1 µM	37.1 µM	> 100 µM	66.8 µM	–	–	–	–
COC(=O)[C@@H]1CC(C(C[N+](=O)[O-])c2ccc(O[Si](C)(C)C(C)(C)C)cc2)C(=O)N1C(=O)OC(C)(C)C (stereo not given in full)	> 100 µM	> 100 µM	> 100 µM	> 100 µM	> 100 µM	> 100 µM	> 100 µM	> 100 µM	> 100 µM	> 100 µM	> 100 µM	> 100 µM	> 100 µM	–	> 100 µM	> 100 µM	14.4 µM and 31.4 µM	> 100 µM and 46.2 µM	> 100 µM and 47.8 µM	> 100 µM and 39.9 µM
CNC(=O)C1(N)c2ccccc2C=Cc2ccccc21	> 100 µM	> 100 µM	> 100 µM	> 100 µM	> 100 µM	> 100 µM	> 100 µM	> 100 µM	> 100 µM	> 100 µM	> 100 µM	> 100 µM	> 100 µM	> 100 µM	> 100 µM	–	–	–	–	–
CCc1nn(CN2CCOCC2)c(=S)n1/N=C/c1ccc(-c2ccc(Cl)cc2)o1	> 100 µM	> 100 µM	> 100 µM	> 100 µM	> 100 µM	> 100 µM	> 100 µM	> 100 µM	> 100 µM	> 100 µM	> 100 µM	> 100 µM	> 100 µM	> 100 µM	–	> 100 µM	–	–	–	–
O=c1[nH]cc(-c2c[nH]c3ccccc23)nc1-c1c[nH]c2ccccc12	25.7 µM	> 100 µM	–	55.5 µM	26.7 µM	41.9 µM	–	89.2 µM	28.1 µM	–	28.1 µM	23.3 µM	26.1 µM	23.7 µM	34.6 µM	10.3 µM	–	–	–	–
COc1c(F)c(F)c(/C(O)=C\c2nc3ccccc3[nH]c2=O)c(F)c1F	> 10 µM	> 10 µM	> 10 µM	–	–	> 10 µM	> 10 µM	> 10 µM	> 10 µM	> 10 µM	> 10 µM	–	> 10 µM	> 10 µM	–	> 10 µM	–	–	–	–
O=C1CCCN1C(=O)CS(=O)(=O)c1ccccc1	> 100 µM	> 100 µM	> 100 µM	–	> 100 µM	> 100 µM	–	> 100 µM	> 100 µM	> 100 µM	> 100 µM	> 100 µM	> 100 µM	> 100 µM	> 100 µM	> 100 µM	–	–	–	–
CC1(/C=C/CCSc2ccccc2)CC(=O)C2CC1C2(C)C (stereo not given)	> 100 µM	> 100 µM	> 40.5 µM	31.5 µM	> 100 µM	> 100 µM	–	> 100 µM	> 100 µM	29.4 µM	> 100 µM	> 91.3 µM	23 µM	> 96 µM	> 100 µM	> 100 µM	–	–	–	–
